Where “and” joins values, the source holds several entries; their conditions need not be identical. Equal entries are not always repeated.
Key:
[1] = tested on: Klebsiella pneumoniae biofilms; assay: Biofilm growth (crystal violet); type: cell-based
Description: (§1) Minimum inhibitory concentration (MIC, defined as the minimum AMP concentration to prevent bacterial growth) and biofilm data were obtained by UV–vis spectroscopy using a BioTek Epoch 2 microplate reader.
The planktonic samples in the wells were then drained by inversion of the plate. The plate was washed with PBS prior to staining with 125 μL of 0.5% Crystal Violet (in 20% ethanol) for 15 min. Excess stain was removed by washing twice with distilled water. The bacterial remnants on the walls of the wells were analyzed at λ = 620 nm to observe any adhered bacteria. The absorbance values as percent of control (no AMP) do show a tendency of bacterial adherence to the wells. In this work, we will refer to the adhered bacteria after incubation at 37 °C for 16 h as biofilms.

[2] = tested on: Klebsiella pneumoniae, 24 clinical isolates and 1 lab strain; type: cell-based; conditions: average over 25 K. pneumoniae substrains; 37 °C, 16 h, OD 570 nm; growth at 32 μM counted as 64 μM
Description: as §1
K. pneumoniae substrains were grown overnight using 50 mL plastic conical tubes on a shaker platform at 37 °C. The following day, serial dilutions of the four SPLUNC1 peptides and LL-37 were tested against these 25 substrains of K. pneumoniae using a 96-well plate. […] Following the addition of the peptides at the tested concentrations from serial dilutions to the K. pneumoniae substrains, the plates were incubated at 37 °C for 16 h. Then, visible spectroscopy at λ = 570 nm was performed to determine the bacterial absorption in each well. Those wells with an optical density reading above a threshold value were deemed resistant to the peptide, while those that were below the threshold value were deemed sensitive to the peptide. The threshold value was determined using Gen5 software with the Di lab Growth Inhibition Assay protocol.
Average MICs and standard deviations were calculated by first averaging the absorbances as a function of AMP concentration in all of the bacterial strains from four total data sets. Then, the average MICs were determined from the averaged absorbances. The standard deviations of the MICs were calculated from each of the absorbances that were used to calculate the average. Then, the standard deviations were averaged across substrains for the graph. These procedures were used to obtain an average MIC with standard deviation across all 25 substrains for one peptide, in order to compare peptide efficacy. Typically, many more substrains are used to obtain an average MIC, so this average MIC may change if thousands of substrains are compared.

[3] = Circular dichroism secondary structure in Euk33 ULVs; type: physicochemical; conditions: 10 μM peptide, 15 mM PBS pH 7, 37 °C
3T3 fibroblast cells = type: cell-based, murine
Description: The TetraZ cell counting kit was used to quantify cell proliferation and cell viability. It is based on a water-soluble tetrazolium salt, which, when reduced by cellular dehydrogenases, produces a chromophore. ∼5 × 10^4 immortalized mouse RAW 264.7 macrophages and 3T3 fibroblast cells were incubated in a 96-well plate and allowed to attach for 24 h. AMPs in cell culture medium (DMEM D5796, 10% FBS, 1% P/S) were added to the wells. Cells were incubated at 37 °C for 4 h with the SPLUNC1 peptide derivatives at 8, 16, 32, and 64 μM concentrations. 10 μL of TetraZ was added and incubated for an additional 1.5 h at 37 °C. A Biotek Epoch 2 visible spectrophotometer was used to read the absorbance. The absorbance by the chromophore at λ = 450nm is proportional to the number of live cells (see standard curves, Figures S1 and S2, and additional cell line results (Figures S3 and S4) in the S.I.).

[4] = tested on: eukaryotic cells vs bacteria; assay: Therapeutic index (eukaryotic cell kill concentration / bacterial kill concentration); type: cell-based
Description: But more important than cytotoxicity is the therapeutic index (TI), which is the concentration at which ≥90% of eukaryotic cells are killed divided by the concentration at which ≥90% of bacteria are killed. For A4-153, this TI value is an estimated ≈ 128 μM/16 μM ≈ 8. TI for A4-157 is an estimated 128 μM/24 μM ≈ 5, and the TI for A4-183 is an estimated 64 μM/20 μM ≈ 3.

With `CC[C@H](C)[C@H](NC(=O)[C@@H](NC(=O)[C@H](CO)NC(=O)[C@H](CCCCN)NC(=O)[C@@H](NC(=O)[C@H](CCCCN)NC(=O)CNC(=O)[C@H](Cc1c[nH]c2ccccc12)NC(=O)[C@@H](NC(=O)CNC(=O)CNC(=O)[C@@H](NC(=O)[C@H](Cc1c[nH]c2ccccc12)NC(=O)CNC(=O)[C@H](CCCCN)NC(=O)[C@@H](NC(=O)[C@H](CCCCN)NC(=O)[C@H](CCCCN)NC(=O)[C@H](Cc1ccccc1)NC(=O)[C@H](Cc1ccccc1)NC(=O)[C@H](CCCCN)NC(=O)[C@H](CCCCN)NC(=O)[C@@H](N)CC(C)C)C(C)C)C(C)C)C(C)C)C(C)C)C(C)C)C(=O)N[C@@H](CCCCN)C(=O)O` (stereo in doubt) [A4-153] the “prevention of biofilm formation” value ([1]; 25 K. pneumoniae substrains, 16 h at 37 °C, crystal violet, 620 nm) was “generally more efficient than the other peptides at preventing biofilm formation”, the “number of colistin-resistant substrains in which the peptide was the most effective at inhibiting biofilm formation” value ([1]; out of 11 colistin-resistant substrains, at ∼16 μM) was “eight” and the “number of colistin-susceptible substrains in which the peptide was the most effective at inhibiting biofilm formation” value ([1]; out of 13 colistin-susceptible substrains, at ∼16 μM) was “seven”. For the same molecule, the “average MIC value” [2] was 18 µM, the Random ([3]; Euk33/peptide molar ratio 0:1) was 57.7% and the α-helix ([3]; Euk33/peptide molar ratio 0:1) was 6.4%. The β-sheet ([3]; Euk33/peptide molar ratio 0:1) was 34.2%, the β-turn ([3]; Euk33/peptide molar ratio 0:1) was 1.7% and the Random ([3]; Euk33/peptide molar ratio 5:1) was 66.2%. It also gave a α-helix ([3]; Euk33/peptide molar ratio 5:1) of 9.7%, a β-sheet ([3]; Euk33/peptide molar ratio 5:1) of 24.1% and a β-turn ([3]; Euk33/peptide molar ratio 5:1) of 0%. The Random ([3]; Euk33/peptide molar ratio 10:1) was 64.2%, the α-helix ([3]; Euk33/peptide molar ratio 10:1) was 12.2% and the β-sheet ([3]; Euk33/peptide molar ratio 10:1) was 23.6%. For the same molecule, the β-turn ([3]; Euk33/peptide molar ratio 10:1) was 0%, the Random ([3]; Euk33/peptide molar ratio 20:1) was 60.4% and the α-helix ([3]; Euk33/peptide molar ratio 20:1) was 14.1%. For the same molecule, the β-sheet ([3]; Euk33/peptide molar ratio 20:1) was 25.5%, the β-turn ([3]; Euk33/peptide molar ratio 20:1) was 0% and the Random ([3]; Euk33/peptide molar ratio 30:1) was 57.5%. For the same molecule, the α-helix ([3]; Euk33/peptide molar ratio 30:1) was 16.2% and 16%, the β-sheet ([3]; Euk33/peptide molar ratio 30:1) was 26.3% and the β-turn ([3]; Euk33/peptide molar ratio 30:1) was 0%. The Random ([3]; Euk33/peptide molar ratio 70:1) was 51.3%, the α-helix ([3]; Euk33/peptide molar ratio 70:1) was 20.5% and the β-sheet ([3]; Euk33/peptide molar ratio 70:1) was 28.2%. For the same molecule, the β-turn ([3]; Euk33/peptide molar ratio 70:1) was 0%, the “concentration required for 0% viable cells (estimate)” value (3T3 fibroblast cells) was 128 µM and the “viable cells compared to the control” value (3T3 fibroblast cells; 64 µM) was about 30%. For the same molecule, the “concentration at which ≥90% of bacteria are killed” value ([4]; denominator of TI) was 16 µM and the “concentration at which ≥90% of eukaryotic cells are killed (estimated)” value ([4]; numerator of TI) was “≈ 128 μM”.
